According to ChEMBL document CHEMBL1177743, “Symbiopolyol, a VCAM-1 inhibitor from a symbiotic dinoflagellate of the jellyfish Mastigias papua” (J Nat Prod, 2010):

Assays:
HUVEC [1] = experiment: Inhibition of VCAM1 expression in TNF-alpha-stimulated HUVEC pretreated 30 mins before TNFalpha challenge for 18 hrs by ELISA; format: functional, cell-based; settings: Homo sapiens
[2] = molecular target: T1, Vascular cell adhesion protein 1 (Homo sapiens) (UniProt P19320); experiment: Inhibition of VCAM1 in TNF-alpha/IL4-stimulated HUVEC assessed as inhibition of cell adhesion between HUVEC and Ramos cells at 8 uM after 20 hrs incubation relative to untreated control; format: cell-based
T1 sequence (whole entry): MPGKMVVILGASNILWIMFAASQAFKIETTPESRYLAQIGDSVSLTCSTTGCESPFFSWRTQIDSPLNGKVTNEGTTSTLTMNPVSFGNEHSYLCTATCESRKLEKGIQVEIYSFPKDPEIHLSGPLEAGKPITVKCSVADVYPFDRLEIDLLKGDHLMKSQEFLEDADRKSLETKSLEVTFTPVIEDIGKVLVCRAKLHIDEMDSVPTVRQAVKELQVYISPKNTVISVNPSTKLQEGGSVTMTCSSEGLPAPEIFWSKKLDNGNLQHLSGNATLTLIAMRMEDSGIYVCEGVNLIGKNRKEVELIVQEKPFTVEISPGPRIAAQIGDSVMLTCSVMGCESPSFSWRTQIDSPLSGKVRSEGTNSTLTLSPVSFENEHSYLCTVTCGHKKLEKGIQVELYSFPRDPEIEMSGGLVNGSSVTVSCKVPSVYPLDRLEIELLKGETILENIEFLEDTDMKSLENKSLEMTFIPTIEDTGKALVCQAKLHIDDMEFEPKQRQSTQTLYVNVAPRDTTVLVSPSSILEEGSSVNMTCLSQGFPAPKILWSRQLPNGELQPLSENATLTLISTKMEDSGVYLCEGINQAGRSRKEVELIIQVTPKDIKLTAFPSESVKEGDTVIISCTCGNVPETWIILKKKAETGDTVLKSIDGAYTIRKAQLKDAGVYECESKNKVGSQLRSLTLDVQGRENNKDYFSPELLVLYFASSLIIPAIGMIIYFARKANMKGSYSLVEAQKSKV

HUVEC [3] = experiment: Toxicity in HUVEC up to 12 uM; format: cell-based; settings: human

## C=CCC/C=C/C=C/C=C/CC/C=C/[C@@H](O)[C@H](O)[C@@H]1O[C@@H]([C@H](O)[C@@H](O)C(=C)CC[C@@H](O)[C@H]2C[C@@H](O)[C@@H](O)[C@H]([C@@H](O)[C@H](O)/C=C(\C)CC[C@H](O)C[C@H](O)[C@H](O)C(C)C(O)C(O)C/C=C/CC(O)/C=C/CCCCCOS(=O)(=O)[O-])O2)C[C@@H](O)[C@H]1O.[Na+] (stereo partly drawn) [SYMBIOPOLYOL]
HUVEC [1]
  IC50: 6.62 µM
[2]
  inhibition: 77%
HUVEC [3]
  Activity: Non-toxic
